Values belong to the molecule of their own block, whether it stands above or below them.
Columns and labels:
[1] = Crystal agglomerate particle sizing by laser diffraction (Malvern dry dispersion); type: physicochemical
Experimental: This was carried out by laser diffraction using a Malvern 2000 dry disperser. The settings used for sizing are set out below: [table] Sample preparation—Triplicate Invert sample jar or vial 10 times. Weigh approximately 2 g of sample and transfer to the sample tray. Evenly disperse sample in sample tray.

[2] = XRPD limit test for crystal form conversion (Forms D and N) in packaged tablet; type: physicochemical; conditions: proposed storage condition, proposed commercial packaging
Text: The stability of the ridinilazole crystal form within the tablet as packaged in the intended commercial packaging configurations. Assessments have been made using a validated discriminatory X-ray powder diffraction (XRPD) method developed as a limit test for detecting Forms D and N within the drug product.

[3] = BCS classification and solubility of drug substance; type: physicochemical; conditions: across physiologically relevant pH
Text: Ridinilazole is a BCS class IV, orally administered and locally acting (lower intestines) GI antibiotic with minimal systemic exposure and very low solubility across physiologically relevant pH. BCS class IV drugs are known to present particular formulation challenges, especially in the case of oral formulations (see e.g. Ghadi and Dand (2017) BCS class IV drugs: Highly notorious candidates for formulation development Journal of Controlled Release, 248: 71-95).

[4] = tested on: Clostridioides difficile infection (CDI); conditions: Phase 2 trial, CDI recurrence; cited from earlier work
[5] = Table 5, input drug substance at limits of specification, listed as 1
[6] = Table 6, micronized ridinilazole tetrahydrate, additional studies, listed as 1
[7] = Table 5, input drug substance at limits of specification, listed as 2
[8] = Table 6, micronized ridinilazole tetrahydrate, additional studies, listed as 2
[9] = Table 5, input drug substance at limits of specification, listed as 3
[10] = Table 6, micronized ridinilazole tetrahydrate, additional studies, listed as 3
[11] = Table 5, input drug substance at limits of specification, listed as 4
[12] = Table 6, micronized ridinilazole tetrahydrate, additional studies, listed as 4
[13] = Table 6, micronized ridinilazole tetrahydrate, additional studies, listed as 5

SMILES: O.O.O.O.c1cc(-c2nc3ccc(-c4ccc5nc(-c6ccncc6)[nH]c5c4)cc3[nH]2)ccn1 [Batch 1, ridinilazole tetrahydrate]
D10 [1, 5]: 2 μm
D50 [1, 5]: 7 μm
D90 [1, 5]: 20 μm
D10 [1, 6]: 1.5 μm
D50 [1, 6]: 6 μm
D90 [1, 6]: 14 μm

SMILES: O.O.O.O.c1cc(-c2nc3ccc(-c4ccc5nc(-c6ccncc6)[nH]c5c4)cc3[nH]2)ccn1 [Batch 2, ridinilazole tetrahydrate]
D10 [1, 7]: 1 μm
D50 [1, 7]: 5 μm
D90 [1, 7]: 11 μm
D10 [1, 8]: 1.1 μm
D50 [1, 8]: 5 μm
D90 [1, 8]: 11 μm

SMILES: O.O.O.O.c1cc(-c2nc3ccc(-c4ccc5nc(-c6ccncc6)[nH]c5c4)cc3[nH]2)ccn1 [Batch 3, ridinilazole tetrahydrate]
D10 [1, 9]: 1 μm
D50 [1, 9]: 5 μm
D90 [1, 9]: 11 μm
D10 [1, 10]: 1.7 μm
D50 [1, 10]: 7 μm
D90 [1, 10]: 14 μm

SMILES: O.O.O.O.c1cc(-c2nc3ccc(-c4ccc5nc(-c6ccncc6)[nH]c5c4)cc3[nH]2)ccn1 [Batch 4, ridinilazole tetrahydrate]
D10 [1, 11]: 1 μm
D50 [1, 11]: 3 μm
D90 [1, 11]: 10 μm
D10 [1, 12]: 1.5 μm
D50 [1, 12]: 6 μm
D90 [1, 12]: 13 μm

SMILES: O.O.O.O.c1cc(-c2nc3ccc(-c4ccc5nc(-c6ccncc6)[nH]c5c4)cc3[nH]2)ccn1 [Batch 5, ridinilazole tetrahydrate]
D10 [1, 13]: 2.0 μm
D50 [1, 13]: 7 μm
D90 [1, 13]: 14 μm

crystal form conversion within the tablet [2]: No form conversion is detected
SMILES: c1cc(-c2nc3cc(-c4ccc5[nH]c(-c6ccncc6)nc5c4)ccc3[nH]2)ccn1 [Form A, ridinilazole tetrahydrate]

SMILES: c1cc(-c2nc3ccc(-c4ccc5nc(-c6ccncc6)[nH]c5c4)cc3[nH]2)ccn1 [ridinilazole, 2,2′-di(pyridin-4-yl)-1H,1′H-5,5′-bibenzo[d]imidazole]
solubility [3]: very low
rates of recurrent disease [4]: 14.3%

SMILES: CN[C@H](CC(C)C)C(=O)N[C@H]1C(=O)N[C@@H](CC(N)=O)C(=O)N[C@H]2C(=O)N[C@H]3C(=O)N[C@H](C(=O)N[C@H](C(=O)O)c4cc(O)cc(O)c4-c4cc3ccc4O)[C@H](O)c3ccc(c(Cl)c3)Oc3cc2cc(c3O[C@@H]2O[C@H](CO)[C@@H](O)[C@H](O)[C@H]2O[C@H]2C[C@](C)(N)[C@H](O)[C@H](C)O2)Oc2ccc(cc2Cl)[C@H]1O [vancomycin, reference compound]
rates of recurrent disease [4]: 34.8%

Source: US12318487B2, “Solid tablet dosage form of ridinilazole” (c/o Summit (Oxford) Limited, priority 2021, dated 2025)
